Results reported in PubChem BioAssay AID330 (DTP/NCI, 2004).
Values joined by “and” are separate entries in the source; they are usually repeats but may differ in a detail not shown here. Identical values can stand only once. Inconclusive results and toxic doses are left out. Rule for the calls: active = survival T/C of 150% or more; inactive = T/C below 125% in these data.

Tested on: P388 leukemia ip, CD2F1 mice, survival T/C
Experiment: NCI In Vivo Anticancer Drug Screen. Data for tumor model P388 Leukemia (intraperitoneal) in CD2F1 (CDF1) mice
Settings: endpoint: median survival time, higher = longer survival
Method in brief: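 Mice carrying the transplanted tumor received test compound or vehicle. Survival was recorded in each group, and the value is the treated-group measurement divided by that of the vehicle-treated control group.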

[1] = dose: 50.0 mg/kg/injection, schedule: Q01DX009 (ip), vehicle: saline with Tween-80
[2] = dose: 100.0 mg/kg/injection, schedule: Q01DX009 (ip), vehicle: saline with Tween-80
[3] = dose: 200.0 mg/kg/injection, schedule: Q01DX009 (ip), vehicle: saline with Tween-80
[4] = dose: 100.0 mg/kg/injection, schedule: Q01DX001 (ip), vehicle: other
[5] = dose: 200.0 mg/kg/injection, schedule: Q01DX001 (ip), vehicle: other
[6] = dose: 400.0 mg/kg/injection, schedule: Q01DX001 (ip), vehicle: other
[7] = dose: 60.0 mg/kg/injection, schedule: Q01DX005 (ip), vehicle: Klucel (hydroxypropylcellulose) (HPC)
[8] = dose: 120.0 mg/kg/injection, schedule: Q01DX005 (ip), vehicle: Klucel (hydroxypropylcellulose) (HPC)
[9] = dose: 240.0 mg/kg/injection, schedule: Q01DX005 (ip), vehicle: Klucel (hydroxypropylcellulose) (HPC)
[10] = dose: 60.0 mg/kg/injection, schedule: Q01DX005 (ip), vehicle: saline with Tween-80
[11] = dose: 120.0 mg/kg/injection, schedule: Q01DX005 (ip), vehicle: saline with Tween-80
[12] = dose: 50.0 mg/kg/injection, schedule: Q01DX005 (ip), vehicle: Klucel (hydroxypropylcellulose) (HPC)
[13] = dose: 100.0 mg/kg/injection, schedule: Q01DX005 (ip), vehicle: Klucel (hydroxypropylcellulose) (HPC)
[14] = dose: 200.0 mg/kg/injection, schedule: Q01DX005 (ip), vehicle: Klucel (hydroxypropylcellulose) (HPC)
[15] = dose: 60.0 mg/kg/injection, schedule: Q01DX005 (ip), vehicle: saline
[16] = dose: 120.0 mg/kg/injection, schedule: Q01DX005 (ip), vehicle: saline
[17] = dose: 50.0 mg/kg/injection, schedule: Q01DX005 (ip), vehicle: saline with Tween-80
[18] = dose: 100.0 mg/kg/injection, schedule: Q01DX005 (ip), vehicle: saline with Tween-80
[19] = dose: 200.0 mg/kg/injection, schedule: Q01DX005 (ip), vehicle: saline with Tween-80
[20] = dose: 240.0 mg/kg/injection, schedule: Q01DX005 (ip), vehicle: saline with Tween-80

Measured: T/C

N#CC(C#N)=CNc1ccccc1
inactive: [1] 100 % of control | [2] 106 % of control | [3] 104 % of control

CCN([NH-])C(=S)[S-].CCN([NH-])C(=S)[S-].[Ni]
inactive: dose: 6.25 mg/kg/injection, schedule: Q04DX003 (ip), vehicle: Klucel (hydroxypropylcellulose) (HPC) 99 % of control | dose: 12.5 mg/kg/injection, schedule: Q04DX003 (ip), vehicle: Klucel (hydroxypropylcellulose) (HPC) 107 % of control | dose: 25.0 mg/kg/injection, schedule: Q04DX003 (ip), vehicle: Klucel (hydroxypropylcellulose) (HPC) 103 % of control

O=[C-]C(F)(F)F.[C-]#[O+].[C-]#[O+].[C-]#[O+].[C-]#[O+].[C-]#[O+].[Mn]
inactive: dose: 50.0 mg/kg/injection, schedule: Q01DX001 (ip), vehicle: other 100 % of control | [4] 100 % of control

CC1(C)OC(=O)C(CCc2ccncc2)(CCc2ccncc2)C(=O)O1
inactive: [1] 115 % of control | [2] 104 % of control | [3] 106 % of control

O=C(/C=C/c1ccc(OCc2ccccc2)cc1)c1c(F)cccc1F
inactive: [1] 99 % of control | [2] 98 % of control | [3] 100 % of control

c1ccc(N=C2CCCCC2)cc1
inactive: [4] 98 % of control | [5] 97 % of control | [6] 106 % of control | dose: 600.0 mg/kg/injection, schedule: Q01DX001 (ip), vehicle: other 101 % of control

COc1ccc2c3c([nH]c2c1)C1CC2C(CC(O)C(OC)C2C(=O)O)CN1CC3 (stereo unspecified)
inactive: [7] 100 % of control | [8] 100 % of control | [9] 106 % of control

CC(Br)C(=O)NC(Cc1ccccc1)C(=O)O (stereo unspecified)
inactive: dose: 100.0 mg/kg/injection, schedule: Q01DX009 (ip), vehicle: saline 99 % of control | dose: 200.0 mg/kg/injection, schedule: Q01DX009 (ip), vehicle: saline 103 % of control | dose: 400.0 mg/kg/injection, schedule: Q01DX009 (ip), vehicle: saline 89 % of control

O=C1C=CC2(O)CCCN12 (stereo unspecified)
inactive: dose: 5.0 mg/kg/injection, schedule: Q01DX005 (ip), vehicle: saline 106 % of control | dose: 10.0 mg/kg/injection, schedule: Q01DX005 (ip), vehicle: saline 110 % of control | dose: 20.0 mg/kg/injection, schedule: Q01DX005 (ip), vehicle: saline 118 % of control

C=CCNC(=S)NCC
inactive: [2] 100 % of control | [3] 104 % of control | dose: 400.0 mg/kg/injection, schedule: Q01DX009 (ip), vehicle: saline with Tween-80 109 % of control

N=C(N)c1ccc(/C=C/c2ccc(C(=N)N)cc2O)cc1
inactive: dose: 12.5 mg/kg/injection, schedule: Q01DX009 (ip), vehicle: water 111 % of control | dose: 22.0 mg/kg/injection, schedule: Q01DX009 (ip), vehicle: water 120 % of control | dose: 25.0 mg/kg/injection, schedule: Q01DX009 (ip), vehicle: water 120 % of control

Oc1ccccc1/C=N\Nc1ccccc1
inactive: [4] 113 % of control | [5] 118 % of control | [6] 100 % of control

CN1CCCC(C(=O)c2ccccc2)C1 (stereo unspecified)
inactive: dose: 12.5 mg/kg/injection, schedule: Q01DX009 (ip), vehicle: saline 109 % of control | dose: 25.0 mg/kg/injection, schedule: Q01DX009 (ip), vehicle: saline 105 % of control | dose: 50.0 mg/kg/injection, schedule: Q01DX009 (ip), vehicle: saline 107 % of control and 94 % of control

COc1ccccc1C1OC(=N)C(=S)N1C (stereo unspecified)
inactive: [7] 107 % of control | [8] 111 % of control | [9] 113 % of control

COc1ccc(C)cc1NC(=S)C#N
inactive: [10] 98 % of control | [11] 106 % of control

CCC(c1ccc(OCc2ccccc2)cc1)c1cc2c(cc1OCCO)OCO2 (stereo unspecified)
inactive: dose: 50.0 mg/kg/injection, schedule: Q01DX005 (ip), vehicle: distilled water + Tween-80 87 % of control | dose: 100.0 mg/kg/injection, schedule: Q01DX005 (ip), vehicle: distilled water + Tween-80 87 % of control | dose: 200.0 mg/kg/injection, schedule: Q01DX005 (ip), vehicle: distilled water + Tween-80 89 % of control

CCOC1=NC2(c3ccccc3)c3ccccc3SC12C (stereo unspecified)
inactive: [12] 98 % of control | [13] 100 % of control | [14] 93 % of control

COc1cccc2c(=O)c(COC(C)=O)c(C)[nH]c12
inactive: [15] 112 % of control | [16] 112 % of control | dose: 240.0 mg/kg/injection, schedule: Q01DX005 (ip), vehicle: saline 112 % of control

O=c1[nH]c(=O)n2ncnc2[nH]1
inactive: dose: 25.0 mg/kg/injection, schedule: Q01DX009 (ip), vehicle: saline with Tween-80 91 % of control | [17] 95 % of control | [1] 95 % of control | [18] 95 % of control | [2] 99 % of control | [19] 105 % of control | [3] 91 % of control

C1C2CC3C1C1OC3C21
inactive: [7] 100 % of control | [8] 99 % of control | [9] 100 % of control

COC1=C(OC)C(=O)C(N(C)C)=C(CO)C1=O
inactive: dose: 30.0 mg/kg/injection, schedule: Q01DX005 (ip), vehicle: saline 105 % of control | [15] 103 % of control and 108 % of control | [16] 117 % of control and 120 % of control

O=C(O)P(=O)(O)O
inactive: dose: 50.0 mg/kg/injection, schedule: Q01DX009 (ip), vehicle: water 95 % of control | dose: 100.0 mg/kg/injection, schedule: Q01DX009 (ip), vehicle: water 103 % of control | dose: 200.0 mg/kg/injection, schedule: Q01DX009 (ip), vehicle: water 100 % of control

CCCCS(=O)(=O)CSC#N
inactive: dose: 3.12 mg/kg/injection, schedule: Q01DX005 (ip), vehicle: saline with Tween-80 102 % of control | dose: 6.25 mg/kg/injection, schedule: Q01DX005 (ip), vehicle: saline with Tween-80 105 % of control | dose: 12.5 mg/kg/injection, schedule: Q01DX005 (ip), vehicle: saline with Tween-80 117 % of control

COC(C(=O)N/C(N)=N/O)c1c(Cl)cccc1Cl (stereo unspecified)
inactive: [12] 98 % of control | [13] 109 % of control

CCCN1C(=O)CC(c2ccc(OC)c(OC)c2)C1=O (stereo unspecified)
inactive: [10] 90 % of control | [11] 90 % of control | [20] 90 % of control

CCOc1ccccc1NC(=O)CC(=O)N1N=C(c2ccccc2)C(N=Nc2ccc(S(N)(=O)=O)cc2)C1=O (stereo unspecified)
inactive: [17] 110 % of control | [18] 102 % of control | [19] 102 % of control

C=C([Se]c1ccccc1)C(C)(C)C
inactive: [1] 114 % of control | [2] 119 % of control

CC1=C(/C=C/C(C)=C/C=C/C(C)=C/C=C/C=C(C)/C=C/C=C(\C)C=O)C(C)(C)CCC1
inactive: [10] 101 % of control | [11] 92 % of control | [20] 94 % of control

C/C(=N\NC(=S)Nc1ccc(C(=O)O)cc1C)c1ccc2ccccc2n1
inactive: [17] 109 % of control | [18] 107 % of control | [19] 119 % of control

O=C(NNCNNC(=O)c1ccncc1)c1ccncc1
inactive: [12] 100 % of control | [13] 100 % of control | [14] 96 % of control
